# Experimental data reported in patent US10317393B2, “Alkynyl sugar analogs for labeling and visualization of glycoconjugates in cells” (Academia Sinica, priority 2007, dated 2019).
# What was measured:
# Jurkat cells = test: Flow cytometry of cell surface labeling after click with biotin azide probe 6 and fluorescein-conjugated streptavidin; type: cell-based, human
# Protocol: In another exemplary implementation, a method for labeling fucosylated glycoconjugates at the cell surface is disclosed. In one aspect, Jurkat cells are grown in the presence of derivatized alkynyl Fuc 1. After treatment, cells are subjected to CuAAC (click chemistry) to couple biotinylated azido probe 6 with any alkynyl Fuc-bearing glycoconjugates, and stained with fluorescein-conjugated streptavidin.
# Labeling alkynyl Fuc-bearing cell surface glycoconjugates is illustrated in FIGS. 1A, 1B, 1C and 1D. FIGS. 1A, 1B, 1C and 1D show analysis of cells tagged with Fuc analogs analyzed by monitoring fluorescence intensity with flow cytometry after labeling with a biotin azide probe 6 and staining cells with fluorescein-conjugated streptavidin. […] Without being bound by theory, incorporation of the derivatized Fuc analogs into fucosylated glycoconjugates likely occurs via the Fuc salvage pathway.
# It is now disclosed in one exemplary implementation of the disclosure that treating cells with derivatized alkynyl ManNAc 4 results in derivatized alkyne-bearing sialyl glycoconjugates. In one aspect of the method, cells are treated with 4 at various concentrations for one to 3 days. Modified sugar analogs and probes used in this disclosure are shown in Scheme 1. Tagging of the cell surface glycoconjugates by derivatized alkynyl ManNAc is illustrated in FIGS. 2A, 2B, 2C and 2D. FIGS. 2A, 2B, 2C and 2D show analysis of cells labeled with ManNAc analogs analyzed by monitoring fluorescence intensity with flow cytometry after clicking on the biotin azide probe 6 and staining cells with fluorescein-conjugated streptavidin. […] Compared with the MFI of controls, there was significant labeling on cells treated with derivatized alkynyl ManNAc 4, even at concentrations as low as 3 micromolar (15-fold increase). […] The optimal concentration of 4 for tagging sialyl glycoconjugates falls between 25 and 50 micromolar.
# Jurkat cells were cultivated (2×10^6/10 ml) in RPMI medium 1640 supplemented with 10% FCS and various concentrations of peracetylated alkynyl sugars 1, 2, or 4 or native sugars 3 or 5, for 1-3 days at 37° C. Cells were then harvested, washed with 0.1% FCS/PBS, and resuspended (10^6 cells) in 100 microliters of click reaction solution (0.1 mM biotin probe 6 or fluorogenic probe 7/0.1 mM Tris-thiazoleamine catalyst/0.1 mM CuSO4/0.5 mM sodium ascorbate, in PBS). The reaction was incubated at room temperature for 30 min, and then the cells were washed twice with 0.1% FCS/PBS. Cells treated with biotin probe 6 were subsequently stained with fluorescein-conjugated streptavidin (0.5 microgram per sample in 50 microliters of 1% FCS/PBS) for 30 min at 4° C., and washed three times with 1% FCS/PBS. Data were acquired by BD LSR II with FACSDiva software, and were analyzed by CellQuestPro software (BD Biosciences). Detection of fluorescent adduct with probe 7 was monitored with a 408 nm laser and a 440/40 bandpass filter for excitation and emission, respectively.
# cell extracts = test: Labeling and detection of glycoconjugates in cell extracts (SDS/PAGE, Western blot); type: cell-based; conditions: 200 micromolar Fuc or 25 micromolar ManNAc analogs, 3 days
# Excerpt: Because the herein disclosed labeling system enables the identification of cellular glycoconjugates, it can also serve well in glyco-proteomic applications aimed at discovering unknown glycosylated targets for diagnostic and therapeutic purposes. […] Soluble lysate fractions are labeled with biotin probe 6, fluorogenic probe 7, or a standard azido-derivatized rhodamine probe used in proteomics before separating proteins by SDS/PAGE. […] Positive fluorescent signal was also detected in alkynyl positive protein lysate when labeled with fluorogenic 3-azido-7-hydroxycoumarin 7 and rhodamine probes (FIG. 6B and FIG. 11). […] Moreover, further processing, including a streptavidin/avidin enrichment or gel slice purification, will allow for comparative identification by proteomic mass spectrometry techniques of unknown glycoconjugates expressed at different cell status, for instance, un-differentiated verses differentiated cells, or normal verses cancer cells.
# Cells were seeded at 3×10^6/8 ml per 10-cm dish and treated with control and test sugars (200 micromolar Fuc 3 vs. alkynyl derivatized Fuc 1, or 25 micromolar ManNAc 5 vs. alkynyl derivatized ManNAc 2) in growth medium at 37° C. […] Signal was developed with SuperSignal Chemiluminescent Substrate and detected by exposure to x-ray film. […] Rhodamine gels were analyzed.
# PC-3 cells = test: Lectin staining of tagged cells, flow cytometry; type: cell-based; conditions: 200 micromolar, three days
# Protocol: FIGS. 9A and 9B show lectin staining of alkynyl-derivatized Fuc 1-tagged PC-3 prostate cancer cells. Cells were treated with 200 micromolar derivatized alkynyl-derivatized Fuc 1, or Fuc 3, or left untreated. After three days, cells were labeled with biotin-conjugated AAL/fluorescein-conjugated streptavidin shown in FIG. 9A or fluorescein-conjugated UEA-I shown in FIG. 9B. Fluorescent signal was detected by flow cytometry. AAL was used to detect α-1,6- or α-1,3-linked Fuc; UEA-I was used to detect α-1,2-linked Fuc. Filled histogram: untreated cells without lectin stain; open histogram c: untreated cells stained with lectin; open histogram b: control Fuc 3-treated cells stained with lectin; open histogram a: alkynyl-derivatized Fuc 1-treated cells stained with lectin. AAL, Aleuria Aurantia Lectin; UEA-1, Ulex Europaeus Agglutinin I.
# PC-3 cells were grown in RPMI 1640 (Invitrogen) supplemented with 10% FCS and peracetylated alkynyl Fuc 1 or control Fuc 3 for 3 days at 37° C. Cells were then harvested, washed with 1% FCS/PBS, resuspended (5×10^5 cells) in 100 μl of staining solution (1 μg/ml lectin conjugates in 1% FCS/PBS). Cells were then incubated on ice for 30 min and washed twice with 1% FCS/PBS. […] Data were acquired by FACSCalibur, and were analyzed by CellQuestPro software (BD Biosciences).
substance,measurement,setting,value
"1,2,3,4-tetraacetyl alkynyl fucose [alkynyl Fuc 1]","saturation of incorporation, incubation time",Jurkat cells; 200 micromolar,one
same,mean fluorescence intensity (MFI) compared with Fuc treated cells,"Jurkat cells; 200 micromolar, biotin probe 6/fluorescein-streptavidin",3 fold
same,dose dependency of glycan tagging,Jurkat cells; 3 days,dose dependent increase of fluorescence signal
same,fluorescence intensity / cell surface signal compared with control sugar-treated cells,Jurkat cells; biotin probe 6/fluorescein-streptavidin,increased fluorescence intensity
same,labeling signal in proteins by Western blot or fluorescence,cell extracts,specific biotin-labeling signals
same,binding of Ulex Europaeus Agglutinin I (UEA-1) to treated cells versus control,PC-3 cells,significantly lower avidity
same,binding of aleuria aurantia lectin to treated cells versus control,PC-3 cells,significantly lower avidity
